# Data as given in patent US20260258032A1, “TYROSINE KINASE 2 INHIBITORS AND USES THEREOF” (BIOGEN MA INC., priority 2022, published 2026).
# Structures can show the parent of a compound that is named as a salt.
# Legend:
# [1] = molecular target: T1, JH2 domain of human Tyk2 (Homo sapiens, UniProt P29597); test: JH2 biochemical assay (TR-FRET probe displacement); assay type: binding
# T1 construct: 10×His-tagged TYK2 JH2 domain (amino acid 575-876)
# Method in brief: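 10×His-tagged human TYK2 JH2 (aa 575-876, 2 nM) incubated 60 min with 2 nM fluorescent probe, 0.1 nM Tb anti-His antibody and compound (10-point 3-fold series from […] top). TR-FRET 520/495 nm ratio, falling with probe displacement, normalized and fitted to a 4-parameter logistic for IC50.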
# [2] = tested on: Tyk2 kinase activity on STAT4; test: pSTAT4 cell assay (MSD, NK92 cells); assay type: cell-based; conditions: compounds 1 hr
# Method in brief: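 Serum-starved NK92 cells, which natively express Tyk2 and STAT4, were pretreated for 1 h with a 10-point 4-fold dilution series from 10 μM. They were then stimulated with 30 ng/mL IL2 for 15 min. Phospho-STAT in lysates was quantified by MSD with anti-STAT4 antibodies, and IC50 was obtained from 4-parameter logistic fits.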
# [3] = TR-FRET probe displacement, JH2 domain of human Tyk2
# T1 sequence (P29597 575-876): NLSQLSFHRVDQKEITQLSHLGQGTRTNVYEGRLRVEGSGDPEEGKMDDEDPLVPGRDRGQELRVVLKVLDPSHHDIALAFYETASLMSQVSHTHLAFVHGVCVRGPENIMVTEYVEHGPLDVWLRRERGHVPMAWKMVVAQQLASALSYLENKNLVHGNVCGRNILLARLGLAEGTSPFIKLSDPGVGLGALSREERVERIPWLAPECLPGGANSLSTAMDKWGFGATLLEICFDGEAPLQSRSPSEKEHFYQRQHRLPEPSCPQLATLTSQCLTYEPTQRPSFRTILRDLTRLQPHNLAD
Structure (SMILES),IC50 ([1]; JH2 biochemical assay),IC50 ([2]; stimulated 15 minutes),"IC50 [1, 3]",IC50 ([2]; then stimulated 15 minutes)
"CC(=O)Nc1cc2c(cn1)C1(CC1)CN2c1cc(C)nc(-c2cnn(C)c2C(F)F)n1 [Example 248, N-(1′-(2-(5-(difluoromethyl)-1-methyl-1H-pyrazol-4-yl)-6-methylpyrimidin-4-yl)-1′,2′-dihydrospiro[cyclopropane-1,3′-pyrrolo[3,2-c]pyridin]-6′-yl)acetamide]",10 to 100 nM,≥ 1000 nM,,
"COC1CC(c2nc(C)cc(N3CC4(CC4)c4cnc(NC(C)=O)cc43)n2)C1 (stereo not shown) [Example 317, N-(1′-(2-(3-methoxycyclobutyl)-6-methylpyrimidin-4-yl)-1′,2′-dihydrospiro[cyclopropane-1,3′-pyrrolo[3,2-c]pyridin]-6′-yl)acetamide]",≤ 10 nM,100 to 1000 nM,,
"CC(=O)Nc1cc2c(cn1)C1(CC1)CN2c1cccc(S(C)(=O)=O)n1 [Example 93, N-(1′-(6-(methylsulfonyl)pyridin-2-yl)-1′,2′-dihydrospiro[cyclopropane-1,3′-pyrrolo[3,2-c]pyridin]-6′-yl)acetamide]",≤ 10 nM,≤ 10 nM,,
"CC(=O)Nc1cc2c(cn1)C1(CC1)CN2c1cc(C)cc(N2CC[C@H](C#N)C2)n1 [Example 402, (S)-N-(1′-(6-(3-cyanopyrrolidin-1-yl)-4-methylpyridin-2-yl)-1′,2′-dihydrospiro[cyclopropane-1,3′-pyrrolo[3,2-c]pyridin]-6′-yl)acetamide]",,,10 to 100 nM,≥ 1000 nM
"CC(=O)Nc1cc2c(cn1)C1(CC1)CN2c1cc(NCC(C)N(C)C)nc(C(C)(F)F)n1 (stereo not shown) [Example 180, N-(1′-(2-(1,1-difluoroethyl)-6-((2-(dimethylamino)propyl)amino)pyrimidin-4-yl)-1′,2′-dihydrospiro[cyclopropane-1,3′-pyrrolo[3,2-c]pyridin]-6′-yl)acetamide trifluoroacetate]",10 to 100 nM,100 to 1000 nM,,
"CC(=O)Nc1cc2c(cn1)C1(CC1)CN2c1cc(C)nc(OC2CCOC2)n1 (stereo not shown) [Example 374, N-(1′-(6-methyl-2-((tetrahydrofuran-3-yl)oxy)pyrimidin-4-yl)-1′,2′-dihydrospiro[cyclopropane-1,3′-pyrrolo[3,2-c]pyridin]-6′-yl)acetamide trifluoroacetate]",,,10 to 100 nM,≥ 1000 nM
"CC(=O)Nc1cc2c(cn1)C1(CC1)CN2c1cc(OC(C#N)C2CC2)nc(C(C)(F)F)n1 (stereo not shown) [Example 152, N-(1′-(6-(cyano(cyclopropyl)methoxy)-2-(1,1-difluoroethyl)pyrimidin-4-yl)-1′,2′-dihydrospiro[cyclopropane-1,3′-pyrrolo[3,2-c]pyridin]-6′-yl)acetamide trifluoroacetate]",10 to 100 nM,100 to 1000 nM,,
"CC(=O)Nc1cc2c(cn1)C1(CC1)CN2c1cc(C)cc(N2CCC3(CC2)COC3)n1 [Example 208, N-(1′-(4-methyl-6-(2-oxa-7-azaspiro[3.5]nonan-7-yl)pyridin-2-yl)-1′,2′-dihydrospiro[cyclopropane-1,3′-pyrrolo[3,2-c]pyridin]-6′-yl)acetamide]",100 to 1000 nM,≥ 1000 nM,,
"CC(=O)Nc1cc2c(cn1)C1(CC1)CN2c1cc(C)cc(N2CC[C@@H](C#N)C2)n1 [Example 403, (R)-N-(1′-(6-(3-cyanopyrrolidin-1-yl)-4-methylpyridin-2-yl)-1′,2′-dihydrospiro[cyclopropane-1,3′-pyrrolo[3,2-c]pyridin]-6′-yl)acetamide]",,,≤ 10 nM,100 to 1000 nM
"COC1CCC(Oc2cc(C)cc(N3CC4(CC4)c4cnc(NC(C)=O)cc43)n2)C1 (stereo not shown) [Example 338, N-(1′-(6-((3-methoxycyclopentyl)oxy)-4-methylpyridin-2-yl)-1′,2′-dihydrospiro[cyclopropane-1,3′-pyrrolo[3,2-c]pyridin]-6′-yl)acetamide trifluoroacetate]",100 to 1000 nM,100 to 1000 nM,,
"CC(=O)Nc1cc2c(cn1)C1(CC1)CN2c1cc(C)nc(C2COC2)n1 [Example 396, N-(1′-(6-methyl-2-(oxetan-3-yl)pyrimidin-4-yl)-1′,2′-dihydrospiro[cyclopropane-1,3′-pyrrolo[3,2-c]pyridin]-6′-yl)acetamide]",,,10 to 100 nM,≥ 1000 nM
"CC(=O)Nc1cc2c(cn1)C1(CC1)CN2c1cc(C)cc(-c2cnn(C(F)F)c2)n1 [Example 259, N-(1′-(6-(1-(difluoromethyl)-1H-pyrazol-4-yl)-4-methylpyridin-2-yl)-1′,2′-dihydrospiro[cyclopropane-1,3′-pyrrolo[3,2-c]pyridin]-6′-yl)acetamide trifluoroacetate]",≤ 10 nM,100 to 1000 nM,,
"CC(=O)Nc1cc2c(cn1)C1(CC1)CN2c1cc(C)nc(OC2CC(F)(C#N)C2)n1 (stereo not shown) [Example 368, N-(1′-(2-(3-cyano-3-fluorocyclobutoxy)-6-methylpyrimidin-4-yl)-1′,2′-dihydrospiro[cyclopropane-1,3′-pyrrolo[3,2-c]pyridin]-6′-yl)acetamide]",100 to 1000 nM,≥ 1000 nM,,
"CCCCc1nc(C)cc(N2CC3(CC3)c3cnc(NC(C)=O)cc32)n1 [Example 58, N-(1′-(2-butyl-6-methylpyrimidin-4-yl)-1′,2′-dihydrospiro[cyclopropane-1,3′-pyrrolo[3,2-c]pyridin]-6′-yl)acetamide]",10 to 100 nM,≥ 1000 nM,,
"CCC(F)(F)c1nc(C)cc(N2CC3(CC3)c3cnc(NC(C)=O)cc32)n1 [Example 304, N-(1′-(2-(1,1-difluoropropyl)-6-methylpyrimidin-4-yl)-1′,2′-dihydrospiro[cyclopropane-1,3′-pyrrolo[3,2-c]pyridin]-6′-yl)acetamide trifluoroacetate]",≤ 10 nM,10 to 100 nM,,
"CC(=O)Nc1cc2c(cn1)C1(CC1)CN2c1cc(NC(C)C)nc(C(C)(F)F)n1 [Example 153, N-(1′-(2-(1,1-difluoroethyl)-6-(isopropylamino)pyrimidin-4-yl)-1′,2′-dihydrospiro[cyclopropane-1,3′-pyrrolo[3,2-c]pyridin]-6′-yl)acetamide trifluoroacetate]",≤ 10 nM,10 to 100 nM,,
"CC(=O)Nc1cc2c(cn1)C1(CC1)CN2c1cc(NC2CC2)nc(C(C)(F)F)n1 [Example 284, N-(1′-(6-(cyclopropylamino)-2-(1,1-difluoroethyl)pyrimidin-4-yl)-1′,2′-dihydrospiro[cyclopropane-1,3′-pyrrolo[3,2-c]pyridin]-6′-yl)acetamide trifluoroacetate]",≤ 10 nM,10 to 100 nM,,
"CC(=O)Nc1cc2c(cn1)C1(CC1)CN2c1cc(C)nc(N2CC(C)(C#N)C2)n1 [Example 221, N-(1′-(2-(3-cyano-3-methylazetidin-1-yl)-6-methylpyrimidin-4-yl)-1′,2′-dihydrospiro[cyclopropane-1,3′-pyrrolo[3,2-c]pyridin]-6′-yl)acetamide]",≤ 10 nM,100 to 1000 nM,,
"CC(=O)Nc1cc2c(cn1)C1(CC1)CN2c1cc(CCCOC(C)(C)C)nc(C(C)(F)F)n1 [Example 325, N-(1′-(6-(3-(tert-butoxy)propyl)-2-(1,1-difluoroethyl)pyrimidin-4-yl)-1′,2′-dihydrospiro[cyclopropane-1,3′-pyrrolo[3,2-c]pyridin]-6′-yl)acetamide]",≤ 10 nM,10 to 100 nM,,
"CC(=O)Nc1cc2c(cn1)C1(CC1)CN2c1cc(C)cc(OC2CC(F)C2)n1 (stereo not shown) [Example 346, N-(1′-(6-(3-fluorocyclobutoxy)-4-methylpyridin-2-yl)-1′,2′-dihydrospiro[cyclopropane-1,3′-pyrrolo[3,2-c]pyridin]-6′-yl)acetamide trifluoroacetate]",100 to 1000 nM,≥ 1000 nM,,
